Data as given in PubChem BioAssay AID1963860 (Molecular Pharmacology Branch, DTP, NCI, 2024).
pIC50: −log10 of the molar value.

Tested on: CN0375-F725-PDC KRAS spheroid viability
Assay: Anticancer human tumor CN0375-F725-PDC patient-derived colon carcinoma cell line growth inhibition [KRAS2]
Conditions: spheroids with HUVEC and MSC; for pIC50: curve of first compound; for viability, T/C: stronger effect = lower value; active means viability on the fitted dose curve at most 10% of control; inactive means the rest
How it was run: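 KRAS-mutant tumor cells were grown as spheroids with HUVEC endothelial cells and human MSCs as stroma. Targeted agents were tested alone and with KRAS pathway inhibitors. Doses started at or near clinical Cmax, or 10 microM, descending half-log.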
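Further: spheroids exposed to agents for 7 days.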

CC1OCC2(CCN(c3cnc(Sc4ccnc(N)c4Cl)c(N)n3)CC2)C1N (stereo not given) + COc1cc2nc(C)nc(NC(C)c3cc(N)cc(C(F)(F)F)c3)c2cc1OC1CCOC1
< 5.00: pIC50 (second compound 0.1 µM) | pIC50 (second compound 0.316 µM) | pIC50 (second compound 1 µM)
inactive: viability, T/C (second compound 0.1 µM, first compound 0.0316 µM) 95.5% | viability, T/C (second compound 0.1 µM, first compound 0.1 µM) 83.2% | viability, T/C (second compound 0.1 µM, first compound 0.316 µM) 80.6% | viability, T/C (second compound 0.1 µM, first compound 1 µM) 81.2% | viability, T/C (second compound 0.1 µM, first compound 3.16 µM) 76% | viability, T/C (second compound 0.1 µM, first compound 10 µM) 70.7% | viability, T/C (second compound 0.316 µM, first compound 0.0316 µM) 90.5% | viability, T/C (second compound 0.316 µM, first compound 0.1 µM) 91.7% | viability, T/C (second compound 0.316 µM, first compound 0.316 µM) 73.3% | viability, T/C (second compound 0.316 µM, first compound 1 µM) 77.8% | viability, T/C (second compound 0.316 µM, first compound 3.16 µM) 71% | viability, T/C (second compound 0.316 µM, first compound 10 µM) 60.6% | viability, T/C (second compound 1 µM, first compound 0.0316 µM) 91.3% | viability, T/C (second compound 1 µM, first compound 0.1 µM) 87.2% | viability, T/C (second compound 1 µM, first compound 0.316 µM) 81.3% | viability, T/C (second compound 1 µM, first compound 1 µM) 73.9% | viability, T/C (second compound 1 µM, first compound 3.16 µM) 68.7% | viability, T/C (second compound 1 µM, first compound 10 µM) 60.4% | viability, T/C (second compound 3.16 µM, first compound 0.0316 µM) 80.9% | viability, T/C (second compound 3.16 µM, first compound 0.1 µM) 73.8% | viability, T/C (second compound 3.16 µM, first compound 0.316 µM) 69% | viability, T/C (second compound 3.16 µM, first compound 1 µM) 57.2% | viability, T/C (second compound 3.16 µM, first compound 3.16 µM) 61.3% | viability, T/C (second compound 3.16 µM, first compound 10 µM) 40.1% | viability, T/C (second compound 10 µM, first compound 0.0316 µM) 13.6% | viability, T/C (second compound 10 µM, first compound 0.1 µM) 12.1% | viability, T/C (second compound 10 µM, first compound 0.316 µM) 12.8%
active: viability, T/C (second compound 10 µM, first compound 1 µM) 8.09% | viability, T/C (second compound 10 µM, first compound 3.16 µM) 8.5% | viability, T/C (second compound 10 µM, first compound 10 µM) 5.15%
5.33: pIC50 (second compound 3.16 µM)
> 7.50: pIC50 (second compound 10 µM)
